From US20120029187A1, “HALOALKYLSULFONANILIDE DERIVATIVE” (Nissan Chemical Industries, Ltd., priority 2009, published 2012)

How the values were obtained:
Type in all cases: in vivo
barnyardgrass [1] = experiment: Test Example 1: herbicidal effects in preemergence treatment under submerged conditions; settings: dose 2.52 g/a
Outline: (§1)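 Flooded-paddy preemergence assay; EC diluted with water, surface-applied at weed seeding; doses g/a; rice transplanted at 2.5 leaves; 0–5 mortality score after 3 weeks.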

bulrush [2] = experiment: as above; settings: dose 2.52 g/a
Outline: as §1

ducksalad [3] = experiment: as above; settings: dose 2.52 g/a
Outline: as §1

transplanted rice = experiment: Test Example 1: preemergence treatment under submerged conditions, effect on crop; settings: dose 2.52 g/a
Outline: as §1

barnyardgrass [4] = experiment: Test Example 2: herbicidal effects during the vegetation period under submerged conditions; settings: treatment during the vegetation period under submerged conditions; dose 2.52 g/a
Outline: (§2)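 Barnyardgrass, bulrush and ducksalad were co-sown in alluvial soil flooded to 4 cm and grown in a greenhouse at 25 to 30° C. At the 1- or 2-leaf stage, water-diluted emulsifiable concentrates went onto the water surface at set doses (g/a). Herbicidal effect was scored three weeks later on a graded scale.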

bulrush [5] = experiment: as above; settings: treatment during the vegetation period under submerged conditions; dose 2.52 g/a
Outline: as §2

ducksalad [6] = experiment: as above; settings: treatment during the vegetation period under submerged conditions; dose 2.52 g/a
Outline: as §2

Italian ryegrass [7] = experiment: Test Example 3: herbicidal effects in soil treatment; settings: dose 3.2 g/a
Outline: (§3)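 Seeds were sown in sterilized diluvial soil and covered with about 1.5 cm of soil. Compounds, formulated as emulsifiable concentrates and diluted with water, were sprayed evenly over the soil surface at set doses in g/a. Herbicidal effect was scored on a rating scale three weeks later.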

barnyardgrass [8] = experiment: as above; settings: dose 3.2 g/a
Outline: as §3

beadstraw [9] = experiment: as above; settings: dose 3.2 g/a
Outline: as §3

common chickweed [10] = experiment: as above; settings: dose 3.2 g/a
Outline: as §3

common lambsquater [11] = experiment: as above; settings: dose 3.2 g/a
Outline: as §3

common ragweed [12] = experiment: as above; settings: dose 3.2 g/a
Outline: as §3

giant foxtail [13] = experiment: as above; settings: dose 3.2 g/a
Outline: as §3

large crabgrass [14] = experiment: as above; settings: dose 3.2 g/a
Outline: as §3

posumbu knotweed [15] = experiment: as above; settings: dose 3.2 g/a
Outline: as §3

redroot pigweed [16] = experiment: as above; settings: dose 3.2 g/a
Outline: as §3

velvetleaf [17] = experiment: as above; settings: dose 3.2 g/a
Outline: as §3

water foxtail [18] = experiment: as above; settings: dose 3.2 g/a
Outline: as §3

Italian ryegrass [19] = experiment: Test Example 4: herbicidal effect in foliage treatment; settings: dose 3.2 g/a, three weeks after application
Outline: (§4)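 Herbicidal effect was rated on an evaluation scale three weeks after treatment. Plants had been raised 14 days at 25 to 30° C in sterilized diluvial soil, then received foliar sprays of emulsifiable concentrate diluted in water at predetermined doses expressed as g per are.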

barnyardgrass [20] = experiment: as above; settings: dose 3.2 g/a, three weeks after application
Outline: as §4

beadstraw [21] = experiment: as above; settings: dose 3.2 g/a, three weeks after application
Outline: as §4

common chickweed [22] = experiment: as above; settings: dose 3.2 g/a, three weeks after application
Outline: as §4

common lambsquater [23] = experiment: as above; settings: dose 3.2 g/a, three weeks after application
Outline: as §4

common ragweed [24] = experiment: as above; settings: dose 3.2 g/a, three weeks after application
Outline: as §4

giant foxtail [25] = experiment: as above; settings: dose 3.2 g/a, three weeks after application
Outline: as §4

large crabgrass [26] = experiment: as above; settings: dose 3.2 g/a, three weeks after application
Outline: as §4

posumbu knotweed [27] = experiment: as above; settings: dose 3.2 g/a, three weeks after application
Outline: as §4

redroot pigweed [28] = experiment: as above; settings: dose 3.2 g/a, three weeks after application
Outline: as §4

velvetleaf [29] = experiment: as above; settings: dose 3.2 g/a, three weeks after application
Outline: as §4

water foxtail [30] = experiment: as above; settings: dose 3.2 g/a, three weeks after application
Outline: as §4

Row | Compound | A: barnyardgrass, herbicidal effect (evaluation scale 0-5) (barnyardgrass [1]) | B: bulrush, herbicidal effect (evaluation scale 0-5) (bulrush [2]) | C: ducksalad, herbicidal effect (evaluation scale 0-5) (ducksalad [3]) | a: transplanted rice, effect on crop (evaluation scale 0-5) (transplanted rice) | A: barnyardgrass, herbicidal effect (evaluation scale 0-5) (barnyardgrass [4]) | B: bulrush, herbicidal effect (evaluation scale 0-5) (bulrush [5]) | C: ducksalad, herbicidal effect (evaluation scale 0-5) (ducksalad [6]) | H: Italian ryegrass, herbicidal effect (evaluation scale 0-5) (Italian ryegrass [7]) | A: barnyardgrass, herbicidal effect (evaluation scale 0-5) (barnyardgrass [8]) | O: beadstraw, herbicidal effect (evaluation scale 0-5) (beadstraw [9]) | N: common chickweed, herbicidal effect (evaluation scale 0-5) (common chickweed [10]) | L: common lambsquater, herbicidal effect (evaluation scale 0-5) (common lambsquater [11]) | J: common ragweed, herbicidal effect (evaluation scale 0-5) (common ragweed [12]) | E: giant foxtail, herbicidal effect (evaluation scale 0-5) (giant foxtail [13]) | D: large crabgrass, herbicidal effect (evaluation scale 0-5) (large crabgrass [14]) | M: posumbu knotweed, herbicidal effect (evaluation scale 0-5) (posumbu knotweed [15]) | K: redroot pigweed, herbicidal effect (evaluation scale 0-5) (redroot pigweed [16]) | I: velvetleaf, herbicidal effect (evaluation scale 0-5) (velvetleaf [17]) | G: water foxtail, herbicidal effect (evaluation scale 0-5) (water foxtail [18]) | H: Italian ryegrass, herbicidal effect (Italian ryegrass [19]) | also measured
1 | CCOC(=O)N(c1ccccc1CN1COC(C)(c2cc(Cl)nn2C)CC1=O)S(=O)(=O)C(F)(F)F (centres unmarked) [II-60] | 5 (mortality of 90% or above (nearly complete death)) | 5 (mortality of 90% or above (nearly complete death)) | 5 (mortality of 90% or above (nearly complete death)) | 0 (mortality of less than 5% (almost ineffective)) | 5 (mortality of 90% or above (nearly complete death)) | 5 (mortality of 90% or above (nearly complete death)) | 5 (mortality of 90% or above (nearly complete death)) | 3 (mortality of at least 40% and less than 70%) | 5 (mortality of 90% or above (nearly complete death)) | 0 (mortality of less than 5% (almost ineffective)) | 4 (mortality of at least 70% and less than 90%) | 1 (mortality of at least 5% and less than 20%) | 1 (mortality of at least 5% and less than 20%) | 5 (mortality of 90% or above (nearly complete death)) | 4 (mortality of at least 70% and less than 90%) | 3 (mortality of at least 40% and less than 70%) | 4 (mortality of at least 70% and less than 90%) | 4 (mortality of at least 70% and less than 90%) | 5 (mortality of 90% or above (nearly complete death)) | 3 (mortality of at least 40% and less than 70%) | A: barnyardgrass, herbicidal effect (barnyardgrass [20]): 4 (mortality of at least 70% and less than 90%); O: beadstraw, herbicidal effect (beadstraw [21]): 4 (mortality of at least 70% and less than 90%); N: common chickweed, herbicidal effect (common chickweed [22]): 4 (mortality of at least 70% and less than 90%); L: common lambsquater, herbicidal effect (common lambsquater [23]): 2 (mortality of at least 20% and less than 40%); J: common ragweed, herbicidal effect (common ragweed [24]): 3 (mortality of at least 40% and less than 70%); E: giant foxtail, herbicidal effect (giant foxtail [25]): 3 (mortality of at least 40% and less than 70%); D: large crabgrass, herbicidal effect (large crabgrass [26]): 3 (mortality of at least 40% and less than 70%); M: posumbu knotweed, herbicidal effect (posumbu knotweed [27]): 2 (mortality of at least 20% and less than 40%); K: redroot pigweed, herbicidal effect (redroot pigweed [28]): 0 (mortality of less than 5% (almost ineffective)); I: velvetleaf, herbicidal effect (velvetleaf [29]): 3 (mortality of at least 40% and less than 70%); G: water foxtail, herbicidal effect (water foxtail [30]): 5 (mortality of 90% or above (nearly complete death))
2 | COCC1(C)CC(=O)N(Cc2ccccc2N(C(=O)OCC(C)C)S(=O)(=O)C(F)(F)F)CO1 (centres unmarked) [II-56] | 5 (mortality of 90% or above (nearly complete death)) | 5 (mortality of 90% or above (nearly complete death)) | 5 (mortality of 90% or above (nearly complete death)) | 0 (mortality of less than 5% (almost ineffective)) | 5 (mortality of 90% or above (nearly complete death)) | 5 (mortality of 90% or above (nearly complete death)) | 5 (mortality of 90% or above (nearly complete death)) | 5 (mortality of 90% or above (nearly complete death)) | 5 (mortality of 90% or above (nearly complete death)) | 0 (mortality of less than 5% (almost ineffective)) | 5 (mortality of 90% or above (nearly complete death)) | 3 (mortality of at least 40% and less than 70%) | 4 (mortality of at least 70% and less than 90%) | 5 (mortality of 90% or above (nearly complete death)) | 4 (mortality of at least 70% and less than 90%) | 3 (mortality of at least 40% and less than 70%) | 2 (mortality of at least 20% and less than 40%) | 5 (mortality of 90% or above (nearly complete death)) | 5 (mortality of 90% or above (nearly complete death)) | 3 (mortality of at least 40% and less than 70%) | A: barnyardgrass, herbicidal effect (barnyardgrass [20]): 5 (mortality of 90% or above (nearly complete death)); O: beadstraw, herbicidal effect (beadstraw [21]): 3 (mortality of at least 40% and less than 70%); N: common chickweed, herbicidal effect (common chickweed [22]): 4 (mortality of at least 70% and less than 90%); L: common lambsquater, herbicidal effect (common lambsquater [23]): 3 (mortality of at least 40% and less than 70%); J: common ragweed, herbicidal effect (common ragweed [24]): 4 (mortality of at least 70% and less than 90%); E: giant foxtail, herbicidal effect (giant foxtail [25]): 4 (mortality of at least 70% and less than 90%); D: large crabgrass, herbicidal effect (large crabgrass [26]): 0 (mortality of less than 5% (almost ineffective)); M: posumbu knotweed, herbicidal effect (posumbu knotweed [27]): 0 (mortality of less than 5% (almost ineffective)); K: redroot pigweed, herbicidal effect (redroot pigweed [28]): 2 (mortality of at least 20% and less than 40%); I: velvetleaf, herbicidal effect (velvetleaf [29]): 5 (mortality of 90% or above (nearly complete death)); G: water foxtail, herbicidal effect (water foxtail [30]): 5 (mortality of 90% or above (nearly complete death))
